# Values joined by “and” are separate entries in the source; they are usually repeats but may differ in a detail not shown here. Identical values can stand only once. Counter-ions that a name gives are not always drawn.
# Assays:
# β-secretase (BACE) = target: T1, β-secretase (BACE) (Homo sapiens, UniProt P56817); experiment: BACE FS1 Assay (% Inhibition and Ki); assay type: biochemical; settings: FS1 substrate; for inhibition at 0.3 µM / % Inhibition (FS) @ 0.3 μM: 0.3 μM test compound; for inhibition at 0.3 µM: read-out: % Inhibition (FS) @ 0.3 μM; for inhibition at 1 µM: read-out: % Inhibition (FS) @ 1 μM; for inhibition at 3 µM: read-out: % Inhibition (FS) @ 3 μM
# T1 construct: purchased Panvera
# T1 sequence (P56817 46-501): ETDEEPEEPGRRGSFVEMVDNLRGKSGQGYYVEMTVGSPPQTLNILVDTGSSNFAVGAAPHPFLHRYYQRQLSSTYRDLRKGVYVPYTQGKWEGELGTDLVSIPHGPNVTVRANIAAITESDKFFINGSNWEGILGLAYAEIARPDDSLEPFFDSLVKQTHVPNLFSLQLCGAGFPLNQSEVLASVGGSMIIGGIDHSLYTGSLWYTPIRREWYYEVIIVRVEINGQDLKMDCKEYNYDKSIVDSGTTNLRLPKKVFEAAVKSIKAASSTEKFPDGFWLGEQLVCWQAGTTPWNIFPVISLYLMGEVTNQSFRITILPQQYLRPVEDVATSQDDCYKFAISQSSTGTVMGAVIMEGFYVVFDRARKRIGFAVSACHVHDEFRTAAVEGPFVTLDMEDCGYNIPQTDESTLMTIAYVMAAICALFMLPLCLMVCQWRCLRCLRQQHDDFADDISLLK
# Description: BACE FS1 Assay (% Inhibition and Ki)
# The following reagents were used in this assay: sodium acetate, PEG8000 (Sigma), DMSO, HEPES, FS1 substrate [R(AedensE)[…]-(DabcylK)R], β-secretase (BACE) (Panvera), and 96-well plate (HE microplate, Molecular Devices).
# The following assay buffers were prepared and used in this assay: (1) enzyme assay buffer (0.05 M sodium acetate, pH5, 0.1% PEG8000 (w/v)), (2) substrate assay buffer (0.05 M sodium acetate, pH5), and (3) compound vehicle (30% DMSO in 50 mM HEPES, pH 7.4).
# The FS1-substrate stock solution was prepared in DMSO as a 10 mg/mL solution. The FS1-substrate working solution was prepared by diluting the 10 mg/mL stock solution with substrate assay buffer to a final concentration of 300 μg/mL. The β-secretase (BACE) working solution was prepared by diluting a 0.83 mg/mL BACE stock solution with enzyme assay buffer to a final concentration of 4 μg/mL.
# Test compounds were dissolved in DMSO to 10 mM. Compounds were further diluted in vehicle to various concentrations in the range of 405 μM to 4.05 μM (13.5× final compound concentration in screening plate).
# The screening procedure for this assay was as follows: 15 μL of BACE working solution was pipetted into each well of a 96-well plate. To each well was then pipetted 2 μL of test compound at the selected concentration. Test compound and BACE were then mixed with a pipettor and incubated for 20 min at room temperature. To each well was then added 10 μL of the FS1 substrate working solution. The plates were then incubated for 1 hour at room temperature. The fluorescence for each well was then measured on an LJL analyst (Ex 360 nm/Em 530 nm).
# The procedure for the blank was as follows. 15 μL of assay buffer was pipetted into each well to be used as a blank control. To each well was then added 2 μL of vehicle and […] of FS1-substrate working solution. The plates were then incubated for 1 hour at room temperature. The fluorescence was measured on an LJL analyst (Ex 360 nm/Em 530 nm).
# The procedure for the positive control was as follows: 15 μL of BACE working solution was pipetted into each well to be used as a positive control. To each well was then pipetted 2 μL of vehicle. Vehicle and BACE were then mixed with a pipettor and incubated for 20 min at room temperature. To each well was then added 10 μL of the FS1 substrate working solution. The plates were then incubated for 1 hour at room temperature. The fluorescence (F1) was then measured on an LJL analyst (Ex 360 nm/Em 530 nm).
# For test compounds, % inhibition was determined at each concentration as follows:
# % Inhibition values of less than 30% were indistinguishable from control are listed as ≦30% in Table 18, below.
# For test compounds, measured at multiple concentrations, the measured T0 and T60 values were used to calculate an IC50 value using Graphpad Software (or PIR). Ki inhibition was determined as follows: For each compound concentration and positive control, rate of cleavage of substrate (Vi, where i=compound concentration in μM) was determined as Δ Fluorescence/Δ time (min). Cleavage rates (Vi) were plotted as a function of inhibitor concentration in μM [I]. […]
# human BACE-1 = human BACE-1 (Homo sapiens, UniProt P56817); experiment: CEREP BACE Inhibition Assay; assay type: biochemical; settings: recombinant enzyme
# Chain of human BACE-1 (P56817 46-501): as above
# Outline: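 Recombinant human BACE-1 (0.25 μg) was assayed in 0.09 M sodium acetate pH 4.5, with activity followed fluorimetrically as formation of Mca-S-E-V-N-L[…] from peptide substrate. Compound autofluorescence was checked at the detection wavelengths. Basal signal was taken from wells without substrate.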
# [1] = 0.3 μM, percent inhibition of the control activity
SMILES,inhibition at 0.3 µM (β-secretase (BACE)) [%],inhibition at 1 µM (β-secretase (BACE); 1 μM test compound) [%],inhibition at 3 µM (β-secretase (BACE); 3 μM test compound) [%],Ki (β-secretase (BACE)) [nM],% Inhibition @ 0.3 μM (human BACE-1; [1]),inhibition at 0.3 µM (human BACE-1; [1]) [%],IC50 (human BACE-1; read-out: IC50),% Inhibition (FS) @ 0.3 μM (β-secretase (BACE)) [%],"% Inhibition (FS) @ 1 μM (β-secretase (BACE); 1 μM test compound, 1 µM) [%]","% Inhibition (FS) @ 3 μM (β-secretase (BACE); 3 μM test compound, 3 µM) [%]"
"NC1=Nc2cnc(Oc3ccccc3)cc2CN1[C@@H](CCC(=O)N(CCO)C1CCCCC1)C1CCCCC1 [Compound 7, 4-(2-Amino-6-phenoxy-4H-pyrido[3,4-d]pyrimidin-3-yl)-4S,N-dicyclohexyl-N-(2-hydroxy-ethyl)-butyramide]",136,136,134,10,95% and 100%,91,140 nM and 150 nM,,,
CCOC(=O)C1CCC(N(C)C(=O)CCC(C2CCCCC2)N2Cc3cc(Oc4ccccc4)ncc3N=C2N)CC1 (stereo not shown) [Compound 17],4,61,86,222,,,,,,
COc1ccccc1-c1cc2c(cn1)N=C(N)N([C@@H](CCC(=O)N(C)C1CCCCC1)C1CCCCC1)C2 [Compound 3],130,132,139,18,,,,,,
NC1=Nc2cnc(Oc3ccccc3)cc2CN1CCCC(=O)NC1C2CC3CC(C2)CC1C3 (stereo not shown) [Compound 6],122,139,138,21,,,,,,
CCOC(=O)CCN(C)C(=O)CC[C@@H](C(C)C)N1Cc2cc(Oc3ccccc3)ncc2N=C1N [Compound 15],68,94,110,129,,,,,,
CC(C)C(CCC(=O)N(CCO)C1CCC(c2nnn[nH]2)CC1)N1Cc2cc(Oc3ccccc3)ncc2N=C1N (stereo not shown) [Compound 12],30,63,95,503,,,,,,
CCOC(=O)C1CCC(N(CCO)C(=O)CCC(C(C)C)N2Cc3cc(Oc4ccccc4)ncc3N=C2N)CC1 (stereo not shown) [Compound 14],11,66,108,241,,,,,,
CN(C(=O)CCC(C1CCCCC1)N1Cc2cc(Oc3ccccc3)ncc2N=C1N)C1CCC(C(=O)O)CC1 (stereo not shown) [Compound 18],119,121,128,17,,,,,,
CC(C)C(CCC(=O)N(CCO)C1CCC(C#N)CC1)N1Cc2cc(Oc3ccccc3)ncc2N=C1N (stereo not shown) [Compound 10],55,80,114,207,,,,,,
CC(C)C(CCC(=O)N(C)C1CCC(C#N)CC1)N1Cc2cc(Oc3ccccc3)ncc2N=C1N (stereo not shown) [Compound 11],47,78,120,124,,,,,,

# The remaining lines, values ahead:
inhibition at 0.3 µM (β-secretase (BACE)) [%],inhibition at 1 µM (β-secretase (BACE); 1 μM test compound) [%],inhibition at 3 µM (β-secretase (BACE); 3 μM test compound) [%],Ki (β-secretase (BACE)) [nM],% Inhibition @ 0.3 μM (human BACE-1; [1]),inhibition at 0.3 µM (human BACE-1; [1]) [%],IC50 (human BACE-1; read-out: IC50),% Inhibition (FS) @ 0.3 μM (β-secretase (BACE)) [%],"% Inhibition (FS) @ 1 μM (β-secretase (BACE); 1 μM test compound, 1 µM) [%]","% Inhibition (FS) @ 3 μM (β-secretase (BACE); 3 μM test compound, 3 µM) [%]",SMILES
112,110,115,9,,,,,,,"NC1=Nc2cnc(Oc3ccccc3)cc2CN1[C@@H](CCC(=O)N(CCO)[C@H]1CC[C@@H](C(=O)O)CC1)C1CCOCC1 [Compound 38, 4-[[4-(2-Amino-6-phenoxy-4H-pyrido[3,4-d]pyrimidin-3-yl)-4-(S)-(tetrahydro-pyran-4-yl)-butyryl]-(2-hydroxy-ethyl)-amino]-cyclohexanecarboxylic acid]"
,115,119,31,,,,93,,,CC(C)[C@H](CO)NC(=O)CC[C@@H](C(C)C)N1Cc2cc(Oc3ccccc3)ncc2N=C1N [Compound 29]
96,106,115,32,,,,,,,COC(=O)[C@H]1CC[C@H](N(C)C(=O)CC[C@@H](C2CCOCC2)N2Cc3cc(Oc4ccccc4)ncc3N=C2N)CC1 [Compound 34]
0,61,93,173,,,,,,,CN(C(=O)CCC(CCO)N1Cc2cc(Oc3ccccc3)ncc2N=C1N)C1CCCCC1 (stereo not shown) [Compound 22]
,,,21,,,,114,112,114,CC(C)[C@H](CO)NC(=O)CC[C@@H](C(C)C)N1Cc2cc(Oc3ccccc3)ncc2N=C1N [Compound 36]
107,118,118,9,,,,,,,"CC(C)[C@H](CCC(=O)N(C)[C@@H](COCc1ccccc1)C(=O)O)N1Cc2cc(Oc3ccccc3)ncc2N=C1N [Compound 52, 2-{[4-(2-Amino-6-phenoxy-4H-pyrido[3,4-d]pyrimidin-3-yl)-5-methyl-(S)-hexanoyl]-methyl-amino}-3-(S)-benzyloxy-propionic acid trifluoroacetate salt]"
110,124,124,22,,,,,,,CN(C(=O)CCC(C1CCOCC1)N1Cc2cc(Oc3ccccc3)ncc2N=C1N)C1CCC(C(=O)O)CC1 (stereo not shown) [Compound 26]
110,107,115,16,,,,,,,CC(C)[C@H](CCC(=O)N(C)[C@H]1CC[C@@H](C(=O)O)CC1)N1Cc2cc(Oc3ccccc3)ncc2N=C1N [Compound 43]
82,91,110,127,,,,,,,"COC(=O)[C@H](COCc1ccccc1)NC(=O)CC[C@@H](C(C)C)N1Cc2cc(Oc3ccccc3)ncc2N=C1N [Compound 45, 2-[4-(2-Amino-6-phenoxy-4H-pyrido[3,4-d]pyrimidin-3-yl)-5-methyl-(S)-hexanoylamino]-3-(S)-benzyloxy-propionic acid methyl ester hydrobromide salt]"
79,101,109,20,,,,,,,COC(=O)[C@H]1CC[C@@H](N(C)C(=O)CC[C@@H](C2CCOCC2)N2Cc3cc(Oc4ccccc4)ncc3N=C2N)CC1 [Compound 32]
68,100,112,58,,,,,,,CCC(CC)N(CCO)C(=O)CC[C@@H](C1CCCCC1)N1Cc2cc(Oc3ccccc3)ncc2N=C1N [Compound 50]
129,125,125,8,,,,,,,CC(C)[C@H](CCC(=O)N(CCO)C1CCCCC1)N1Cc2cc(Oc3ccccc3)ncc2N=C1N [Compound 31]

# Source: patent publication US7531545B2, “2-amino-3,4-dihydro-pyrido[3,4-d]pyrimidine derivatives useful as inhibitors of β-secretase (BACE)” (Janssen Pharmaceutica, N.V., priority 2005, dated 2009)
